Experimental data: patent US10738028B2, “Spiro three-membered ring, spiro five-membered ring peptide deformylase inhibitor and use thereof in antibacteria and anti-tumor” (priority 2016, dated 2020)
Converted amounts (≈) assume the structure as drawn.

Columns and labels:
Format in all cases: cell-based
[1] = test system: Enterococcus faecalis (EFA); assay: MIC, two-fold agar dilution (CLSI), clinical isolates
Text: (§1) 1. The invention adopts the two-fold agar dilution method recommended by the operating procedure of antimicrobial susceptibility testing set by American Clinical and Laboratory Standards Institute (CLSI) to determine the Minimum Inhibitory Concentration (MIC) of the test samples against the tested strains.

[2] = test system: Enterococcus faecium (EFM); assay: as above
Text: as §1

[3] = test system: Escherichia coli (including ESBLs, non-ESBLs); assay: as above
Text: as §1

[4] = test system: Moraxella catarrhalis (BCA); assay: as above
Text: as §1

[5] = test system: Streptococcus pneoumoniae (SPN); assay: as above
Text: as §1

[6] = test system: methicillin-resistant Staphylococcus aureus (MRSA); assay: as above
Text: as §1

[7] = test system: methicillin-resistant Staphylococcus epidermidis (MRSE); assay: as above
Text: as §1

[8] = test system: methicillin-sensitive Staphylococcus aureus (MSSA); assay: as above
Text: as §1

[9] = test system: methicillin-sensitive Staphylococcus epidermidis (MSSE); assay: as above
Text: as §1

[10] = test system: HCT-116 colorectal cancer cell line; assay: CCK-8 proliferation inhibition; conditions: Homo sapiens, HCT-116, 72 h, concentration of 30 μM; 72 hours; CCK-8; read-out: HCT116 inhibition rate/%
Method in brief: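 HCT-116 cells, seeded at 2000 cells/well in McCoy's 5A with 10% newborn bovine serum, were cultured overnight at 37° C., 5% CO2, then exposed to compound dilutions in medium for 72 hours. Viability was read with 1:10 diluted CCK-8; controls received 1‰ DMSO.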

O=CN(O)C[C@@H](CC1CCCC1)C(=O)N1CC2(CC2)C[C@H]1C(=O)Nc1cnccn1 [Example 26]
MIC (anti-bacterial activity) ([1]; strain EFA 15-1): 2 µg/mL (≈ 4.81 µM) | MIC (anti-bacterial activity) ([1]; strain EFA 15-2): 2 µg/mL (≈ 4.81 µM) | MIC (anti-bacterial activity) ([1]; strain EFA 15-3): 0.5 µg/mL (≈ 1.2 µM) | MIC (anti-bacterial activity) ([1]; strain EFA 15-4): 2 µg/mL (≈ 4.81 µM) | MIC (anti-bacterial activity) ([1]; strain EFA 15-5): 2 µg/mL (≈ 4.81 µM) | MIC (anti-bacterial activity) ([1]; strain EFA 15-6): 2 µg/mL (≈ 4.81 µM) | MIC (anti-bacterial activity) ([1]; strain EFA 15-9): 2 µg/mL (≈ 4.81 µM) | MIC (anti-bacterial activity) ([2]; strain EFM 15-1): 0.5 µg/mL (≈ 1.2 µM) | MIC (anti-bacterial activity) ([2]; strain EFM 15-2): 0.5 µg/mL (≈ 1.2 µM) | MIC (anti-bacterial activity) ([2]; strain EFM 15-3): 0.25 µg/mL (≈ 0.602 µM) | MIC (anti-bacterial activity) ([2]; strain EFM 15-4): 0.5 µg/mL (≈ 1.2 µM) | MIC (anti-bacterial activity) ([2]; strain EFM 15-5): 0.25 µg/mL (≈ 0.602 µM) | MIC (anti-bacterial activity) ([2]; strain EFM 15-6): 0.5 µg/mL (≈ 1.2 µM) | MIC (anti-bacterial activity) ([3]; strain ECO+ 15-1): 32 µg/mL (≈ 77 µM) | MIC (anti-bacterial activity) ([3]; strain ECO+ 15-2): 32 µg/mL (≈ 77 µM) | MIC (anti-bacterial activity) ([3]; strain ECO+ 15-3): 32 µg/mL (≈ 77 µM) | MIC (anti-bacterial activity) ([3]; strain ECO+ 15-4): 32 µg/mL (≈ 77 µM) | MIC (anti-bacterial activity) ([3]; strain ECO− 15-1): 32 µg/mL (≈ 77 µM) | MIC (anti-bacterial activity) ([3]; strain ECO− 15-2): 32 µg/mL (≈ 77 µM) | MIC (anti-bacterial activity) ([3]; strain ECO− 15-3): 32 µg/mL (≈ 77 µM) | MIC (anti-bacterial activity) ([3]; strain ECO− 15-4): 32 µg/mL (≈ 77 µM) | MIC (anti-bacterial activity) ([4]; strain BCA 14-1): 0.5 µg/mL (≈ 1.2 µM) | MIC (anti-bacterial activity) ([4]; strain BCA 14-4): 0.5 µg/mL (≈ 1.2 µM) | MIC (anti-bacterial activity) ([4]; strain BCA 14-5): 0.25 µg/mL (≈ 0.602 µM) | MIC (anti-bacterial activity) ([4]; strain BCA 14-6): 0.5 µg/mL (≈ 1.2 µM) | MIC (anti-bacterial activity) ([4]; strain BCA 14-7): 0.25 µg/mL (≈ 0.602 µM) | MIC (anti-bacterial activity) ([4]; strain BCA 14-8): 0.5 µg/mL (≈ 1.2 µM) | MIC (anti-bacterial activity) ([4]; strain BCA 14-10): 0.25 µg/mL (≈ 0.602 µM) | MIC (anti-bacterial activity) ([5]; strain SPN 16-2): 0.25 µg/mL (≈ 0.602 µM) | MIC (anti-bacterial activity) ([5]; strain SPN 16-4): 2 µg/mL (≈ 4.81 µM) | MIC (anti-bacterial activity) ([6]; strain MRSA 15-1): 0.25 µg/mL (≈ 0.602 µM) | MIC (anti-bacterial activity) ([6]; strain MRSA 15-2): 0.25 µg/mL (≈ 0.602 µM) | MIC (anti-bacterial activity) ([6]; strain MRSA 15-3): 0.25 µg/mL (≈ 0.602 µM) | MIC (anti-bacterial activity) ([6]; strain MRSA 15-4): 0.25 µg/mL (≈ 0.602 µM) | MIC (anti-bacterial activity) ([7]; strain MRSE 15-1): 0.125 µg/mL (≈ 0.301 µM) | MIC (anti-bacterial activity) ([7]; strain MRSE 15-2): 0.5 µg/mL (≈ 1.2 µM) | MIC (anti-bacterial activity) ([7]; strain MRSE 15-3): 0.5 µg/mL (≈ 1.2 µM) | MIC (anti-bacterial activity) ([7]; strain MRSE 15-7): 0.5 µg/mL (≈ 1.2 µM) | MIC (anti-bacterial activity) ([8]; strain MSSA 15-3): 0.25 µg/mL (≈ 0.602 µM) | MIC (anti-bacterial activity) ([8]; strain MSSA 15-4): 0.25 µg/mL (≈ 0.602 µM) | MIC (anti-bacterial activity) ([8]; strain MSSA 15-5): 0.25 µg/mL (≈ 0.602 µM) | MIC (anti-bacterial activity) ([8]; strain MSSA 15-6): 0.25 µg/mL (≈ 0.602 µM) | MIC (anti-bacterial activity) ([9]; strain MSSE 15-3): 0.125 µg/mL (≈ 0.301 µM) | MIC (anti-bacterial activity) ([9]; strain MSSE 15-4): 0.5 µg/mL (≈ 1.2 µM) | MIC (anti-bacterial activity) ([9]; strain MSSE 15-5): 0.5 µg/mL (≈ 1.2 µM) | MIC (anti-bacterial activity) ([9]; strain MSSE 15-6): 0.5 µg/mL (≈ 1.2 µM) | inhibition at 30 µM [10]: 18%
